{"source": "patent US20250262192A1", "about": "“PROGNOSTIC PATHWAYS FOR HIGH RISK SEPSIS PATIENTS” (KONINKLIJKE PHILIPS N.V., priority 2021, published 2025)", "key": {"[1]": {"test_system": "TGFbeta cellular signaling pathway", "assay": "THP-1 cells cultured 24 hrs with LPS, then DHT or AR inhibitor (FIG. 35, Table 7); pathway analysis", "assay_type": "cell-based", "method": "(§1) FIG. 35 Schematic overview of AR inhibitor experiment. Depicts the experimental setup to determine if AR inhibitors can be used to mitigate the effect of LPS on monocytes (THP-1 cells). […] In a parallel experiment, THP-1 cells are first cultured for 24 hours with LPS, after which the medium is changed and the cells are cultured with one of ARCC-4, ARD-266, A-458 and bicalutamide.\n(§2) FIG. 35 describes the experimental set-up used. […] In a parallel experiment, THP-1 cells are first cultured for 24 hours with LPS, after which the medium is changed and the cells are cultured with one of ARCC-4, ARD-266, A-458 and bicalutamide.\nAs expected the remaining AR inhibitors were not able to mitigate the effect of LPS on TGFbeta cellular signaling pathway activity.\nAR and TGFbeta pathways are functional in monocytic cells (Table 7)."}, "[2]": {"test_system": "TGFbeta cellular signaling pathway", "assay": "THP-1 sepsis prevention model, qPCR-based STP activity score", "assay_type": "cell-based"}, "AR pathway [3]": {"test_system": "AR pathway", "assay": "THP-1 cell line stimulated with LPS or DHT and inhibited with Bicalutamide or Enzalutamide (Table 9A)", "assay_type": "cell-based", "method": "(§3) LPS is considered the main mediator of the sepsis symptoms. An in vitro experiment was designed where monocytes were stimulated with LPS and subsequently treated with a variety of inhibitors. […] 26 Aug.\n(§4) After stimulation cells were harvested and RNA was extracted using the RNeasy mini kit (Qiagen, 74104). qPCR-based STP activity scores were calculated using the Philips Research OncoSignal platform (www.philips.com/oncosignal), as described herein."}, "TGFBeta pathway [4]": {"test_system": "TGFBeta pathway", "assay": "THP-1 cell line stimulated with LPS or DHT and inhibited with Bicalutamide or Enzalutamide (Table 9A)", "assay_type": "cell-based", "method": "as §3, §4"}, "AR pathway [5]": {"test_system": "AR pathway", "assay": "MOLT-4 lymphoid cell line stimulated with LPS or DHT and inhibited with Bicalutamide or Enzalutamide (Table 9B)", "assay_type": "cell-based", "settings": "stimulated 5 hours and subsequently inhibited", "method": "(§5) MOLT-4 (ATCC CRL-1582) were cultured in RPMI1640 media, supplemented with 10% FBS, 1% glutamax and 1% pen strep at 37° C. 5% CO2.\nas §4"}, "TGFBeta pathway [6]": {"test_system": "TGFBeta pathway", "assay": "MOLT-4 lymphoid cell line stimulated with LPS or DHT and inhibited with Bicalutamide or Enzalutamide (Table 9B)", "assay_type": "cell-based", "method": "as §5, §4"}, "[7]": {"test_system": "AR cellular signaling pathway", "assay": "THP-1 sepsis prevention model, qPCR-based STP activity score", "assay_type": "cell-based"}, "AR pathway [8]": {"test_system": "AR pathway", "assay": "PBMCs of sepsis patients treated in vitro 24 hours with inhibitors, pathway activity score", "assay_type": "cell-based, human", "design": "AR Pathway activity scores of sepsis PBMC patients: scale not given here", "settings": "EXP 2, individual patient samples, Resatorvid 10 uM, D4-abiraterone 10 uM, A-485 100 nM, Galunisertib 10 uM", "method": "(§6) PBMC samples from healthy volunteers and sepsis patients were obtained via Tissue solutions. Briefly, cryopreserved PBMCs were first washed with washing buffer (PBS/1% BSA/2 mM EDTA), centrifuged and pellet resuspended in culture medium (RPM11640 without phenol red+8.5% charcoal stripped FBS+1% Glx+1% p/s). 0.5·10^5-1·10^6 cells were seeded per well in 24 wells plate and rested for 1 hour before treatment experiment. 10 PBMC samples from healthy donors were used to; (1) measure the baseline pathway levels, (2) activate with LPS\n(§7) Sepsis treatment model: PBMC derived from sepsis patients (n=20) were treated 24 hours with compounds, DMSO or combination of compounds. (PBMC from healthy and sepsis patients are originating from the same hospital to minimize bias in sample prep). After stimulation cells were harvested and RNA was extracted using the RNeasy mini kit (Qiagen, 74104). qPCR was performed using the Philips Research OncoSignal platform.\n(§8) In total 18 PBMCs sepsis samples were treated for 24 hours with selected inhibitors (and combinations), 6 patient samples per experiment."}, "[9]": {"test_system": "AR cellular signaling pathway", "assay": "THP-1 cells cultured 24 hrs with LPS, then DHT or AR inhibitor (FIG. 35, Table 7); pathway analysis", "assay_type": "cell-based", "method": "as §1, §2\nAll experimental conditions were subjected to cellular signaling pathways analysis."}, "TGFbeta pathway [10]": {"test_system": "TGFbeta pathway", "assay": "PBMCs of sepsis patients treated in vitro 24 hours with inhibitors, pathway activity score", "assay_type": "cell-based, human", "design": "scale not given here", "settings": "EXP 2, individual patient samples, Resatorvid 10 uM, D4-abiraterone 10 uM, A-485 100 nM, Galunisertib 10 uM", "method": "as §6, §7, §8"}, "[11]": {"test_system": "ER cellular signaling pathway", "assay_type": "cell-based", "method": "as §1, §2"}, "[12]": {"test_system": "HH (Hedgehog) cellular signaling pathway", "assay_type": "cell-based", "method": "as §1, §2"}, "[13]": {"settings": "24 hrs 25 uM Bicalutamide or DMSO, then 24 hrs DHT"}, "[14]": {"settings": "24 hrs 25 uM Bicalutamide or DMSO, then 24 hrs LPS"}, "[15]": {"settings": "24 hrs 25 uM Bicalutamide, then 24 hrs PBS"}, "[16]": {"settings": "THP-1, DHT (25 nM) alone or + Bicalutamide (5 uM) or Enzalutamide (5 uM), stimulated 5 hours and subsequently inhibited"}, "[17]": {"settings": "THP-1, LPS (50 ng/mL) alone or + Bicalutamide (5 uM) or Enzalutamide (5 uM), stimulated 5 hours and subsequently inhibited"}, "[18]": {"settings": "DHT (25 nM) alone or + Bicalutamide (5 uM) or Enzalutamide (5 uM)"}, "[19]": {"settings": "THP-1, 24 hours LPS, medium changed, then inhibitor"}}, "note": "Several values for one entry are separate records, joined by “and”; a condition that tells them apart may be missing. Identical values can stand only once."}
{"compound": "TGFbeta: original ligand for the TGFbeta STP added to monocytic cells", "values": [{"measurement": "TGFbeta pathway activity, ligand stimulation", "setting": "[1]; monocytic cells (THP-1)", "value": "induced activity"}]}
{"compound": "CC(O)(CS(=O)(=O)c1ccc(F)cc1)C(=O)Nc1ccc(C#N)c(C(F)(F)F)c1", "note": "(stereo not drawn) [Bicalutamide]", "values": [{"measurement": "Average TGFbeta STP score", "setting": "[2]; [13]", "value": 1.04, "unit": "normalized scores"}, {"measurement": "Average TGFbeta STP score", "setting": "[2]; [14]", "value": 9.78, "unit": "normalized scores"}, {"measurement": "Average TGFbeta STP score", "setting": "[2]; [15]", "value": 1.25, "unit": "normalized scores"}, {"measurement": "AR STP activity", "setting": "AR pathway [3]; [16]", "value": 6.7, "unit": "normalized scores"}, {"measurement": "AR STP activity", "setting": "AR pathway [3]; [17]", "value": 20.2, "unit": "normalized scores"}, {"measurement": "TGFbeta STP activity", "setting": "TGFBeta pathway [4]; [16]", "value": 15.6, "unit": "normalized scores"}, {"measurement": "TGFbeta STP activity", "setting": "TGFBeta pathway [4]; [17]", "value": 34.6, "unit": "normalized scores"}, {"measurement": "AR STP activity", "setting": "AR pathway [5]; [18]", "value": 7.4, "unit": "normalized scores"}, {"measurement": "AR STP activity", "setting": "AR pathway [5]; LPS (50 ng/mL) alone or + Bicalutamide (5 uM) or Enzalutamide (5 uM)", "value": 7.2, "unit": "normalized scores"}, {"measurement": "TGFbeta STP activity", "setting": "TGFBeta pathway [6]; MOLT-4, DHT (25 nM) alone or + Bicalutamide (5 uM) or Enzalutamide (5 uM), stimulated 5 hours and subsequently inhibited", "value": 13.9, "unit": "normalized scores"}, {"measurement": "TGFbeta STP activity", "setting": "TGFBeta pathway [6]; MOLT-4, LPS (50 ng/mL) alone or + Bicalutamide (5 uM) or Enzalutamide (5 uM), stimulated 5 hours and subsequently inhibited", "value": 14.1, "unit": "normalized scores"}, {"measurement": "Average AR STP score", "setting": "[7]; [13]", "value": 3.17, "unit": "normalized scores"}, {"measurement": "Average AR STP score", "setting": "[7]; [14]", "value": 12.93, "unit": "normalized scores"}, {"measurement": "Average AR STP score", "setting": "[7]; [15]", "value": 2.63, "unit": "normalized scores"}]}
{"compound": "CNC(=O)Nc1ccc2c(c1)CC[C@@]21OC(=O)N(CC(=O)N(Cc2ccc(F)cc2)[C@@H](C)C(F)(F)F)C1=O", "note": "[A-485]", "values": [{"measurement": "AR Pathway activity scores of sepsis PBMC patients", "setting": "AR pathway [8]", "value": "24 and 27 and 25"}, {"measurement": "LPS induced AR activity after addition of inhibitor (FIG. 36)", "setting": "[9]; [19]", "value": "reduction of AR activity"}, {"measurement": "LPS induced TGFbeta activity after addition of inhibitor (FIG. 39)", "setting": "[1]; [19]", "value": "reduction of LPS induced TGFbeta activity"}, {"measurement": "TGFbeta Pathway activity scores of sepsis PBMC patients", "setting": "TGFbeta pathway [10]", "value": "28 and 33 and 35"}]}
{"compound": "C[C@]12CC[C@H]3[C@@H](CCC4=CC(=O)CC[C@@]43C)[C@@H]1CC[C@@H]2O", "note": "[Testosterone]", "values": [{"measurement": "AR pathway activity, ligand stimulation", "setting": "[9]; THP-1 cells", "value": "induced activity"}]}
{"compound": "C[C@]12CCC(=O)C[C@@H]1CC[C@@H]1[C@@H]2CC[C@]2(C)[C@@H](O)CC[C@@H]12", "note": "[DHT, dihydrotestosterone]", "values": [{"measurement": "Average TGFbeta STP score", "setting": "[2]; [13]", "value": 1.27, "unit": "normalized scores"}, {"measurement": "AR cellular signaling pathway activity, effect of stimulus (FIG. 36)", "setting": "[9]", "value": "increase"}, {"measurement": "TGFbeta signaling activity, effect of stimulus (FIG. 39)", "setting": "[1]", "value": "did not increase"}, {"measurement": "AR STP activity", "setting": "AR pathway [3]", "value": 8.7, "unit": "normalized scores"}, {"measurement": "TGFbeta STP activity", "setting": "TGFBeta pathway [4]", "value": 12.9, "unit": "normalized scores"}, {"measurement": "AR STP activity", "setting": "AR pathway [5]; [18]", "value": 7.5, "unit": "normalized scores"}, {"measurement": "TGFbeta STP activity", "setting": "TGFBeta pathway [6]", "value": 14.1, "unit": "normalized scores"}, {"measurement": "ER cellular signaling pathway activity (FIG. 37)", "setting": "[11]", "value": "not substantially affected"}, {"measurement": "HH cellular signaling pathway activity (FIG. 38)", "setting": "[12]", "value": "not substantially affected"}, {"measurement": "Average AR STP score", "setting": "[7]; [13]", "value": 6.13, "unit": "normalized scores"}]}
